In patent publication USRE45173E1, “Inhibitors of CYP 17” (Novartis AG, priority 2009, dated 2014) one finds IC50 and Km data, which are given here for 40 compounds.

Structures can show the parent of a compound that is named as a salt. Where two headings read alike, the source gives them in different places.

In general, Km refers to the concentration of substrate that gives half-maximal velocity.

The target of this experiment is recombinant human CYP17 enzyme (Homo sapiens (Human), UniProt P05093). Nature of the experiment: Cytochrome P450, 17-20 lyase (CYP17-lyase) assay, tritiated acetic acid release from 17-α-hydroxy pregnenolone [21-3H]. The following applies: for IC50: human CYP17, substrate 0.25 μM. In kind it is biochemical. The text has this:
Assay method was adopted from a published protocol with some modifications to suit our requirements (Dmitry N Grigoryev et al, Analytical Biochemistry, (1999) 267, 319-330). […] Chloroform extraction removes the radioactive steroids and acetic acid is taken into aqueous layer. The tritiated acetic acid released in the assay thus extracted is quantified to determine the enzyme activity. […] The purified cell membrane preparations were used as the source for Human CYP17 enzyme. […] O, Nijar, et al., J Med Chem, (1998) 41, 902-912). […] Km for this substrate was determined by monitoring the tritiated acetic acid release as a function of substrate concentration. […] For the Km determination, the data was fit to a hyperbolic equation (Graphpad Prism® software IV). […] (Dmitry N. Grigoryev et al, Analytical Biochemistry (1999) 267, 319-330) […] NADPH is used at a final concentration of 4.2 mM. Total reaction volume was made up to 50 μL with 50 mM Phosphate buffer pH 7.5. The reaction mixture was incubated at room temperature for 90 minutes with gentle shaking. The reaction was stopped by the addition of 100 μL of buffer. 500 μL of 5% freshly prepared activated charcoal was added to the solution and mixed well by vortexing. The samples were centrifuged at 17568×g for 5 minutes. (14000 rpm). The supernatant was carefully transferred to fresh tube and 1.3 mL of scintillation fluid was added, mixed by vortexing. The radioactivity was measured in a 1450 MicroBeta TriLux™ scintillation counter from Wallac-Perkin Elmer®, USA. The measurements were carried out in 2.0 mL Eppendorforf™ tubes. […] The amount of tritiated acetic acid released is proportional to the lyase activity. Percent lyase activity in presence of inhibitor was calculated using the formula given below. […] Enzyme reaction in presence of inhibitor. • Positive control: […] For IC50 determination, the % inhibition was plotted as a function of inhibitor concentration. The data was fitted to sigmoidal equation using Graphpad Prism® software IV to generate IC50 values.

Setting [1] is: read-out: Lyase IC 50 nM Human/Rat (Human).
The mark [2] stands for this setting: read-out: Lyase IC 50 Human/Rat (Human).

Chain of recombinant human CYP17 enzyme (P05093 whole entry): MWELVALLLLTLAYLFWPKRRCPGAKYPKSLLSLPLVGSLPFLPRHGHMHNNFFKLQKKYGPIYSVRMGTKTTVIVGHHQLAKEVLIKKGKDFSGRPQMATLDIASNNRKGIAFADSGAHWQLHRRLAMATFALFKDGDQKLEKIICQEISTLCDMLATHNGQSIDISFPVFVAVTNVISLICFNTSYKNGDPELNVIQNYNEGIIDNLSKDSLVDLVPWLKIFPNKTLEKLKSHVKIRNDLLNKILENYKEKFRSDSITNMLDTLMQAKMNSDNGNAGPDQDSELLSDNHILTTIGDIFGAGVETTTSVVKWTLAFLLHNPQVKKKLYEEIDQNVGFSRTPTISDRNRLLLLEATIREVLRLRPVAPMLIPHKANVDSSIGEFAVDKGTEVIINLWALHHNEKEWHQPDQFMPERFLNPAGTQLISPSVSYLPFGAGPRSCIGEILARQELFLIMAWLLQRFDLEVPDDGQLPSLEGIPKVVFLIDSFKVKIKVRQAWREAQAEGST

Consider `Cc1ccncc1N1CCN(c2csc(C(F)F)c2)C1=O` [Example 78A, 1-(5-Difluoromethyl-thiophen-3-yl)-3-(4-methyl-pyridin-3-yl)-imidazolidin-2-one], for which the IC50 under setting [1] is 9.3 nM.
Take `O=C1N(c2ccc3ncsc3c2)CCN1c1cnccc1C(F)(F)F` [Example 128A, 1-Benzothiazol-6-yl-3-(4-trifluoromethyl-pyridin-3-yl)-imidazolidin-2-one]: the IC50 under setting [1] was found to be 44 nM.
In the case of `Cc1ccncc1N1CCN(c2ccc3nccn3c2)C1=O` [Example 94A, 1-Imidazo[1,2-a]pyridin-6-yl-3-(4-methyl-pyridin-3-yl)-imidazolidin-2-one], the IC50 under setting [1] worked out at 110 nM.
Still for that read-out and setting: the value for `Cc1cn2cc(N3CCN(c4cnccc4C)C3=O)ccc2n1` [Example 104A] was 1990 nM; that for `Cc1ccncc1N1CCN(c2csc3ccccc23)C1=O` [Example 109A, 1-Benzo[b]thiophen-3-yl-3-(4-methyl-pyridin-3-yl)-imidazolidin-2-one] was 158 nM.
`Cc1ccncc1N1CCN(c2cn(C)c3cccc(C#N)c23)C1=O` [Example 146A, 1-Methyl-3-[3-(4-methyl-pyridin-3-yl)-2-oxo-imidazolidin-1-yl]-1H-indole-4-carbonitrile]: under setting [2], the IC50 is greater than 10000 nM.
`Cc1cc(NCc2ccncc2N2CCN(c3ccc4ncsc4c3)C2=O)n[nH]1` [Example 182A, 1-Benzothiazol-6-yl-3-{4-[(5-methyl-1H-pyrazol-3-ylamino)-methyl]-pyridin-3-yl}-imidazolidin-2-one]: the IC50 under setting [1] came out at 27 nM.
Take `Cc1ccncc1N1CCN(c2ccn3c(Cl)cnc3c2)C1=O` [Example 145A, 1-(3-Chloro-imidazo[1,2-a]pyridin-7-yl)-3-(4-methyl-pyridin-3-yl)-imidazolidin-2-one]: the IC50 under setting [1] was 31 nM.
On the same count and under the same terms, to `Cc1ccncc1-n1ccn(-c2ccc3sccc3c2)c1=O` [Example 139A, 1-Benzo[b]thiophen-5-yl-3-(4-methyl-pyridin-3-yl)-1,3-dihydro-imidazol-2-one] belongs 83 nM.
Regarding `CC(=O)C1(O)CCC2C3CC=C4CC(O)CCC4(C)C3CCC21C` (stereo not drawn) [17-α-hydroxy pregnenolone [21-3H], reference compound], under “substrate varied from 0.03125 μM to 1 μM, hyperbolic fit, read-out: Km (Michaelis Menton constant) of the substrate”, the Km came to 0.25 µM.
For the compound `Cc1cc(-n2ccn(-c3cnccc3C)c2=O)cs1` [Example 92A, 1-(4-Methylpyridin-3-yl)-3-(5-methylthiophen-3-yl)-1H-imidazol-2(3H)-one], the IC50 under setting [1] worked out at 21 nM.
On to `O=C1N(c2ccc3ncsc3c2)CCN1c1cnccc1Cl` [Example 84A, 1-Benzothiazol-6-yl-3-(4-chloro-pyridin-3-yl)-imidazolidin-2-one], for which, under setting [1], the IC50 stood at 85 nM.
The same measure, in the same setting: to `CC(=O)Nc1ccncc1N1CCN(c2ccc3ncsc3c2)C1=O` [Example 150A, N-[3-(3-Benzothiazol-6-yl-2-oxo-imidazolidin-1-yl)-pyridin-4-yl]-acetamide] belongs 496 nM; to `Cc1ccncc1N1CCN(c2cc3c(C)nccc3s2)C1=O` [Example 194A], 21 nM.
On to `Cc1ccncc1N1CCN(c2ccc3[nH]nc(C)c3c2)C1=O` [Example 95A, 1-(3-Methyl-1H-indazol-5-yl)-3-(4-methyl-pyridin-3-yl)-imidazolidin-2-one], for which the IC50 under setting [1] is 119 nM.
In the case of `Cc1ccncc1N1CCN(c2ccc3scnc3c2)C1=O` [Example 62A, 1-Benzothiazol-5-yl-3-(4-methyl-pyridin-3-yl)-imidazolidin-2-one], the IC50 under setting [1] turned out to be 426 nM.
With `Cc1ccncc1N1CCN(c2ccccc2)C1=O` [Example 69A, 1-(4-Methyl-pyridin-3-yl)-3-phenyl-imidazolidin-2-one], the IC50 under setting [1] amounted to 34 nM.
`Cc1ccncc1N1CCN(c2cccc3ccccc23)C1=O` [Example 133A, 1-(4-Methyl-pyridin-3-yl)-3-naphthalen-1-O-imidazolidin-2-one]: under setting [1], the IC50 amounted to 1970 nM.
As to `Cc1cc(N2CCN(c3cnccc3C)C2=O)ccc1F` [Example 59A, 1-(4-Fluoro-3-methyl-phenyl)-3-(4-methyl-pyridin-3-yl)-imidazolidin-2-one], the IC50 under setting [1] is 17 nM.
As to `Cc1ccncc1N1CCCN(c2ccc3ccccc3c2)C1=O` [Example 130A, 1-(4-Methyl-pyridin-3-yl)-3-naphthalen-2-yl-tetrahydro-pyrimidin-2-one], the IC50 under setting [2] is greater than 10000 nM.
`COc1cc(N2CCN(c3cnccc3C)C2=O)ccc1F` [Example 74A, 1-(4-Fluoro-3-methoxy-phenyl)-3-(4-methyl-pyridin-3-yl)-imidazolidin-2-one]: under setting [1], the IC50 turned out to be 76 nM.
Take `Cc1ccncc1N1CCN(c2cccc(Cl)c2F)C1=O` [Example 86A, 1-(3-Chloro-2-fluoro-phenyl)-3-(4-methyl-pyridin-3-yl)-imidazolidin-2-one]: the IC50 under setting [1] came to 1200 nM.
With `Cc1ccncc1N1CCN(c2cc3cnccc3s2)C1=O` [Example 120A, 1-(4-Methyl-pyridin-3-yl)-3-thieno[3,2-c]pyridin-2-yl-imidazolidin-2-one], the IC50 under setting [2] worked out at 4000 nM.
In the case of `Cc1nc2cc(N3CCN(c4cnccc4C)C3=O)ccc2o1` [Example 93A, 1-(2-Methyl-benzooxazol-5-yl)-3-(4-methyl-pyridin-3-yl)-imidazolidin-2-one], under setting [2], the IC50 is greater than 10000 nM.
Take `CC(O)c1ccncc1N1CCN(c2ccc3ncsc3c2)C1=O` (stereo not shown) [Example 158A, 1-(benzo[d]thiazol-6-yl)-3-(4-(1-hydroxyethyl)pyridin-3-yl)imidazolidin-2-one]: the IC50 under setting [1] worked out at 38 nM.
Consider `Cc1ccncc1N1CCN(c2csc3ccncc23)C1=O` [Example 136A, 1-(4-Methyl-pyridin-3-yl)-3-thieno[3,2-c]pyridin-3-yl-imidazolidin-2-one], for which the IC50 under setting [1] came out at 500 nM.
Regarding `NC(=O)c1ccncc1N1CCN(c2ccc3ncsc3c2)C1=O` [Example 185A, 3-(3-Benzothiazol-6-yl-2-oxo-imidazolidin-1-yl)-isonicotinamide], the IC50 under setting [2] is greater than 10000 nM.
With `Nc1ccncc1N1CCN(c2ccc3ncsc3c2)C1=O` [Example 152A, 1-(4-Amino-pyridin-3-yl)-3-benzothiazol-6-yl-imidazolidin-2-one Hydrochloride Salt], the IC50 under setting [1] turned out to be 7 nM.
Same read-out and setting: to `Cc1ccncc1N1CCN(c2cccc(C#N)c2)C1=O` [Example 106A, 3-[3-(4-Methyl-pyridin-3-yl)-2-oxo-imidazolidin-1-yl]-benzonitrile] belongs 35 nM; to `O=C1N(c2ccc3ncsc3c2)CCN1c1cnccc1C(F)F` [Example 125A, 1-Benzothiazol-6-yl-3-(4-difluoromethyl-pyridin-3-yl)-imidazolidin-2-one], 17 nM.
For the compound `Cc1cc(Cl)ccc1N1CCN(c2cnccc2C)C1=O` [Example 89A, 1-(4-Chloro-2-methyl-phenyl)-3-(4-methyl-pyridin-3-yl)-imidazolidin-2-one], the IC50 under setting [1] was found to be 326 nM.
Regarding `Cc1ccncc1N1CCN(c2ccn3ccnc3c2)C1=O` [Example 73A, 1-imidazolidin-2-one], under setting [1], the IC50 amounted to 109 nM.
The same measure, in the same setting: the value for `COC(OC)c1ccncc1N1CCN(c2ccc3ncsc3c2)C1=O` [Example 149A, 1-Benzothiazol-6-yl-3-(4-dimethoxymethyl-pyridin-3-yl)-imidazolidin-2-one] was 37 nM; that for `Cc1ccncc1N1CCN(c2csc3ccnc(Cl)c23)C1=O` [Example 99A, 1-(4-Chloro-thieno[3,2-c]pyridin-3-yl)-3-(4-methyl-pyridin-3-yl)-imidazolidin-2-one] was 22 nM.
Take `Cc1ccc(N2CCN(c3cnccc3C)C2=O)s1` [Example 15A, 1-(4-Methyl-pyridin-3-yl)-3-(5-methyl-thiophen-2-yl)-imidazolidin-2-one]: the IC50 under setting [1] is 10 nM.
The same measure, in the same setting: to `Cc1cc(N2CCN(c3cnccc3C)C2=O)ccn1` [Example 100A, 1-(4-Methyl-pyridin-3-yl)-3-(2-methyl-pyridin-4-yl)-imidazolidin-2-one] belongs 46 nM.
Take `Cc1ccncc1N1CCN(c2cc3c(Cl)nccc3s2)C1=O` [Example 98A, 1-(4-chloro-thieno[3,2-c]pyridin-2-yl)-3-(4-methyl-pyridin-3-yl)-imidazolidin-2-one]: the IC50 under setting [1] was 18 nM.
`Cc1ccncc1N1CCN(c2ccc(F)c(C#N)c2)C1=O` [Example 103A, 2-Fluoro-5-[3-(4-methyl-pyridin-3-yl)-2-oxo-imidazolidin-1-yl]-benzonitrile]: under setting [1], the IC50 stood at 19 nM.
As for `O=C1N(c2cnc3[nH]ccc3c2)CCN1c1ccc2ncsc2c1` [Example 187A, 1-Benzothiazol-6-yl-3-(1H-pyrrolo[2,3-b]pyridin-5-yl)-imidazolidin-2-one], under setting [2], the IC50 is greater than 10000 nM.
`Cc1ccncc1N1CCN(c2ccc3c(N)n[nH]c3c2)C1=O` [Example 123A, 1-(3-Amino-1H-indazol-6-yl)-3-(4-methyl-pyridin-3-yl)-imidazolidin-2-one]: under setting [1], the IC50 was determined as 10 nM.
